Measured values published in US20190054038A1, “NITRIC OXIDE GENERATING FORMULATIONS AND KITS” (THE REGENTS OF THE UNIVERSITY OF MICHIGAN, priority 2016, published 2019).

Legend:
[1] = NO release kinetics of solutions by chemiluminescence (nitric oxide analyzer); format: physicochemical
Description: The NO release profile of the two solutions was measured via chemiluminescence detection at 37° C., and the results are shown in FIG. 3. As depicted, both solutions continuously generated NO for more than 7 hours, and the solution containing the higher concentration of GSNO generated higher levels of NO.
As depicted, the inclusion of ascorbate provided an enhanced NO release profile, with all of the NO release within a 2-3 hour window.
The NO release rate of some of the solution formulations was measured by chemiluminescent nitric oxide analyzer (NOA) at room temperature and at 37° C. in an amber NOA cell, while purging with 50 mL/min nitrogen through a glass pipette. The solution formulations were freshly prepared (initial data) (i.e., the dry powder nasal formulation was dissolved in 10 mL of saline solution (NaCl and NaHCO3 in water) immediately before measurements), or were prepared from stored dry power aliquots that were freshly dissolved in 10 mL of saline solution (NaCl and NaHCO3 in water) immediately before measurements. The NO release rate was tested for one or more of the following time periods: 0 (freshly prepared), 1 month, 2 months, 4 months, and 6 months.
The NOA was a Sievers NOA. Studying the release kinetics included analyzing the overall shape of the transient curve, half-life, and total NO released compared to theoretical GSNO content (%). Primarily, the shape of the graph was considered most qualitative, as different machines yield different PPB/mL values due to differing constants. If necessary, the GSNO quantification in each formulation was tested by a copper/cysteine method to release all of the NO from the GSNO very rapidly.

[2] = system: S. aureus biofilm on CF airway epithelial cells; assay: Killing of S. aureus biofilm on CF airway epithelial cell cultures (bacterial density by plating lysates); format: cell-based; settings: 1.25 mM, 4 hours
Description: Progenitor (basal) airway epithelial cells isolated from cystic fibrosis patients were cultured at air/liquid interface to promote mucociliary differentiation resembling airway epithelium in vivo. These cultures will be referred to herein as CF airway epithleial cells.
Apical surface of the CF airway epithelial cells was washed with PBS, infected apically with 10 μl of S. aureus (1×10^5 CFU/well or at 0.01 multiplication of infection), and incubated for 24 hours. […] The basolateral medium was changed, the apical surface was washed with saline once, and then 30 μl of PBS containing various concentrations of GSNO/Asc (i.e., 0 mM, 0.3 mM, 0.625 mM, 1.25 mM, 2.5 mM, and 5 mM) was added to the apical surface and incubated for 4 hours. The apical surface was washed once with 0.2 ml of 0.15% bicarbonate in PBS. […] Cells were lysed in 1% Triton X-100 and serial dilutions of cell lysates were plated to determine the bacterial density (FIG. 17A).
Apical surface of CF airway epithelial cells was washed with PBS, infected apically with 10 μl of S. aureus (2×10^6 CFU/well), and incubated for 24 hours. The basolateral medium was changed, the apical surface was washed with saline once and treated apically with 30 μl of PBS, or saline containing 1.25 mM GSNO/Asc, or saline containing 50 μg of gentamicin, or saline containing a mixture of 1.25 mM GSNO/Asc and 50 μg of gentamicin. […]

[3] = Stability of dry powder formulations by UV/Vis (GSNO absorbance at 334 nm); format: physicochemical
Description: Some of the formulations also included ethylenediamintetraacetic acid (EDTA) and/or saline salts (NaCl and NaHCO3). The constituents were mixed as dry powders and were stored in 4 mL amber vials either in the freezer (−18° C.), at 4° C., at room temperature (RT, from about 20° C. to about 25° C.), or at 37° C. The stability of some of the dry powder formulations was tested via UV/Vis analysis and/or via the Sievers nitric oxide (NO) analyzer (as previously described). For the UV/Vis analysis, at each time interval (0 (freshly prepared), 1 month, 2 months, 4 months, and 6 months), three samples (3-5 mg each) from the dry powder formulations (at each temperature, resulting in 12 vials per formulation) were put into 4 mL amber vials. The respective formulations were then diluted in 4 mL PBS+0.1 mM EDTA (PB SE) solution and mixed for 30 seconds, and 1 mL of the diluted formulation was injected into 3 mL PBSE in a disposable UV/VIS cuvette. The absorbance spectrum was measured typically between 300-600 nm after measuring the PBSE spectrum as blank. GSNO was quantified by absorbance measured at 334 nm. These values were then compared to a calculated value of the percentage of initial or theoretical GSNO content of each formulation.

Compound: O=C(O)CN(CCN(CC(=O)O)CC(=O)O)CC(=O)O [EDTA, ethylenediaminetetraacetic acid]
- EDTA stability in stored dry powder formulation ([1]; NO release patterns, fresh vs stored several months): stable

Compound: N[C@@H](CCC(=O)N[C@@H](CS)C(=O)NCC(=O)O)C(=O)O [GSH, reduced L-glutathione]
- change in bacterial density [2]: no significant changes in bacterial density

Compound: N[C@@H](CCC(=O)N[C@@H](CSN=O)C(=O)NCC(=O)O)C(=O)O [GSNO, S-nitrosoglutathione]
- time of continuous NO generation ([1]; 10 μM and 25 μM GSNO in phosphate buffered saline pH 7.4, 37° C., no additive): more than 7 hours
- amount of NO release versus GSNO concentration ([1]; GSNO 1-100 μM in saline): directly related to the GSNO concentration
- time of peak NO release ([1]; GSNO 1-100 μM in saline, without any additive): 5 to 6 h
- % of initial GSNO remaining ([3]; dry powder stored at 37° C., after 6 months): 67%
- stability of dry powder over six months (UV/VIS) ([3]; stored at −18° C., 4° C., room temperature, 37° C.): no significant decrease in the stability

Compound: O=C1O[C@H]([C@@H](O)CO)C(O)=C1O [ascorbic acid, L-ascorbic acid, reference compound]
- ascorbic acid stability in stored dry powder formulation ([3]; UV/Vis of GSNO mixed with ascorbic acid, fresh vs stored several months): relatively stable
- change in bacterial density [2]: no significant changes in bacterial density
